Measurements published in patent publication EP0427799B1, “METHOD AND COMPOUNDS FOR AICA RIBOSIDE DELIVERY AND FOR LOWERING BLOOD GLUCOSE” (GENSIA, INC., priority 1989, dated 1990).

Columns and labels:
serum glucose = experiment: Plasma glucose levels in humans after intravenous infusion; assay type: in vivo
Experimental: Healthy male volunteers were given a 30-minute intravenous infusion of AICA riboside at doses of 25 mg/kg, 50 mg/kg or 100 mg/kg.
Plasma glucose levels were monitored over a four hour period during and following the 30 minute infusion. Plasma glucose was measured by clinical chemistry autoanalyzer. The onset of the serum glucose lowering effect was evident by the end of the AICA riboside infusion period and plasma glucose reached a nadir approximately 30 minutes after the AICA riboside infusion was stopped. Recovery to euglycemic levels was complete by about three hours.

infarct size = experiment: Rat models of focal brain ischemia (partial and total reperfusion); assay type: in vivo; conditions: 800 mg/kg IP
Excerpt: (§1) The claimed prodrugs, by delivering AICA riboside should provide similar efficacy. […] Both intracerebroventricular (ICV) and IP administration of AICA riboside was effective in the gerbil model In addition to the gerbil, two different rat models of focal ischemia were also used to evaluate AICA-riboside. One model employed partial reperfusion and the second total reperfusion.

triglycerides = experiment: Plasma triglyceride levels in diabetic rats, chronic treatment; assay type: in vivo; conditions: streptozotocin-induced diabetes in rats
Experimental: Rats were made diabetic by treatment with streptozocin (50 mg/kg IV) and then treated with either saline or AICA riboside (500 mg/kg, twice a day) for 22 days. Plasma triglyceride levels were analyzed 18 hours after the last injection of AICA riboside using the Sigma Procedure #334 Assay Kit (coupled assay employing lipase, glycerokinase, pyruvate kinase and lactate dehydrogenase) which measures decreases in OD₃₄₀ over time (NADH disappearance).

liver glycogen = experiment: Effect on liver glycogen in mice; assay type: in vivo; conditions: 750 mg/Kg
Experimental: (See Figures 9 and 10A to 10D). The glucose lowering effects of AICA riboside are related temporally to the generation and maintenance of liver ZMP levels in rats. (See Figures 11A and 11B).
Swiss Webster mice were treated with saline (as a control) or 750 mg/kg of AICA riboside administered intraperitoneally, six animals per group. The mice were sacrificed one hour post-administration The livers were removed and extracted. Liver glycogen was determined by the method of Dubois, et al., Anal. Chem. 28:350-356 (1956). Glucose was measured by the hexokinase method (See Example K).

insulin = experiment: Blood insulin levels in rats; assay type: in vivo; conditions: high doses, early time points
Excerpt: This leads to investigation of the mechanism of AICA riboside induced hypoglycemia. […] This adenosine induced hyperglycemia is reversed by adenosine receptor antagonists (theophylline and sulphophenyltheophylline). Additionally, the AICA riboside-induced hypoglycemia is not blocked by theophylline. It is therefore concluded that the AICA riboside effect on plasma glucose is not mediated by adenosine. […] (See Figure 13).

adenosine kinase = adenosine kinase (Homo sapiens, UniProt P55263); experiment: Inhibition of adenosine kinase; assay type: biochemical
Sequence of adenosine kinase (P55263 whole entry, species assumed): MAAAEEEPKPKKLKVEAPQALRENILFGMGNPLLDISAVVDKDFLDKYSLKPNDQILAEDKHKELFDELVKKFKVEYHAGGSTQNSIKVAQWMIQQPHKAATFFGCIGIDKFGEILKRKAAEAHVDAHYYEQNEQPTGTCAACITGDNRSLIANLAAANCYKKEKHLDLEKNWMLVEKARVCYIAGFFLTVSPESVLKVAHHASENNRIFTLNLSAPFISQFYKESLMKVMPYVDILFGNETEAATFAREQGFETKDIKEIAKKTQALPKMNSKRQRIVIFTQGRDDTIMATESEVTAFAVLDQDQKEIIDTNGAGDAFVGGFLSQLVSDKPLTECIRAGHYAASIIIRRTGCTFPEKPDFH

Blood glucose = experiment: Hypoglycemic effects of oral AICA riboside prodrugs; assay type: in vivo, mice (Swiss Webster); conditions: equimolar amounts
Experimental: Male mice (Swiss Webster) were given equimolar amounts of either saline, AICA riboside, or compounds C1 or 10 of Table I orally. Blood glucose levels were measured one hour after administration by the glucose strip method (Chemstrip B.G.).

plasma glucose [1] = experiment: Plasma glucose levels in non-fasted and fasted mice; assay type: in vivo, mice (Swiss-Webster); conditions: for reduced glucose levels: fasted mice (16 hours)
Experimental: Ribose is known to lower blood glucose in several animal species, including man, in relatively high doses (on the order of about 1000 mg/kg) by an unknown mechanism, possibly by inhibition of phosphoglucomutase. […] Initial studies were performed using non-fasted rats (Sprague Dawley) and mice (Swiss-Webster).
Male mice (Swiss-Webster) were injected IP with the indicated treatment. […] Ribose and AICA riboside were formulated in saline. Glucose levels were measured on plasma (heparinized blood centrifuged at 10,000 X g for ten minutes). Glucose levels were measured one hour after AICA riboside administration.

plasma glucose [2] = experiment: Plasma glucose in streptozocin-hyperglycemic rats; assay type: in vivo; conditions: rats made hyperglycemic with 50 mg/Kg streptozocin I.V.; doses as low as 100 mg/Kg I.P.
Experimental: (§2) This hypoglycemic effect may contribute to the anti-ischemic properties of the molecule. Ribose is known to lower blood glucose in several animal species, including man, in relatively high doses (on the order of about 1000 mg/kg) by an unknown mechanism, possibly by inhibition of phosphoglucomutase. Accordingly, in theory, AICA riboside could cause hypoglycemia at extremely high doses ([…]) due to its ability to deliver ribose phosphate to cells. Other means of increasing intracellular ribose such as treatment with ribose itself or other nucleosides and prodrugs and analogs of them which can be metabolized to yield ribose-1-phosphate (which is converted ribose-5-phosphate) or ribose-5-phosphate may also lower blood sugar. […] At higher doses of AICA riboside, hypoglycemic seizures and death were induced in rabbits and mice. We have found rats to also be sensitive to the hypoglycemic effects of AICA riboside. Initial studies were performed using non-fasted rats (Sprague Dawley) and mice (Swiss-Webster). […] In non-fasted mice the decrease of glucose levels at this dose was greater, On the order of 30-50%. In both cases the hypoglycemia was statistically significant at the p <.01 level. […] In fasted mice, AICA riboside is potent in lowering blood glucose. (See e.g., Figure 6). In fasted mice AICA riboside may cause seizures at doses of 500 mg/Kg and above. […]

ischemic heart tissue = experiment: Adenosine, AICA riboside and ZMP levels in ischemic heart tissue; assay type: in vivo, rats; conditions: ischemic rat heart tissue
Experimental: Prodrug compounds of the present invention and AICA riboside were tested for their activity in enhancing the production of adenosine and increasing production of AICA riboside from ZMP in ischemic heart tissue in rats.
Samples of heart tissue after ischemia were analyzed for nucleoside and nucleotide levels. Samples were measured for adenosine, AICA riboside and ZMP concentrations by HPLC.

plasma glucose [3] = experiment: Plasma glucose levels in non-fasted rats; assay type: in vivo, rats (Sprague Dawley); conditions: 750 mg/Kg, 1 hour after administration
Experimental: as §2

hippocampal CA-1 cells = experiment: Gerbil model of 5 minutes global brain ischemia followed by reperfusion; assay type: in vivo; conditions: ICV and IP administration
Excerpt: as §1

[4] = healthy male volunteers, 30-minute intravenous infusion

Q: For `NC(=O)c1ncn([C@@H]2O[C@H](CO)[C@@H](O)[C@H]2O)c1N` [AICA riboside, 1-β-D-ribofuranosyl-5-aminoimidazole-4-carboxamide], which “time of plasma glucose nadir after infusion was stopped” value (serum glucose; [4]) is on record?
A: approximately 30 minutes

Q: What about the “time to recovery to euglycemic levels” value (serum glucose; [4]) of the same compound?
A: about three

Q: What about the “effect on serum glucose” value (serum glucose; humans, 25 mg/kg intravenously over 30 minutes) of the same compound?
A: significant reductions in serum glucose

Q: And the infarct size (infarct size)?
A: highly significant reduction in infarct size

Q: What about the serum triglycerides (triglycerides) of the same compound?
A: lowers serum triglycerides

Q: And the “increase of liver glycogen” value (liver glycogen)?
A: 55%

Q: And the blood insulin levels (insulin)?
A: suppress blood insulin levels

Q: What about the “inhibition of adenosine kinase” value (adenosine kinase) of the same compound?
A: weak inhibitor

Q: And the “hypoglycemia after oral administration” value (Blood glucose)?
A: did not produce detectable hypoglycemia

Q: And the “doses that may cause seizures” value (plasma glucose [1]; fasted mice)?
A: ≥ 500 mg/kg

Q: What about the “duration of reduced plasma glucose levels” value (plasma glucose [1]; fasted mice (2 hours), 500 mg/Kg) of the same compound?
A: 2 to 3 h

Q: What about the reduced glucose levels (plasma glucose [1]; 250 mg/Kg) of the same compound?
A: 50%

Q: What about the reduced glucose levels (plasma glucose [1]; 500 and 750 mg/Kg) of the same compound?
A: 60%

Q: What about the “decrease of glucose levels” value (plasma glucose [1]; non-fasted mice, 750 mg/Kg) of the same compound?
A: 30-50%

Q: What about the “effect on plasma glucose” value (plasma glucose [2]) of the same compound?
A: marked decreases in plasma glucose that approached euglycemic levels

Q: And the “Tissue Concentration Adenosine” value (ischemic heart tissue; Prodrug A at dose equimolar to AICA riboside)?
A: 409 ± 60 nmol/g

Q: And the “Tissue Concentration AICA Riboside” value (ischemic heart tissue; equimolar doses)?
A: 774 ± 73 nmol/g

Q: What about the “Decreases in plasma glucose levels” value (plasma glucose [3]) of the same compound?
A: 30-40%

Q: And the “degeneration of hippocampal CA-1 cells” value (hippocampal CA-1 cells)?
A: prevented the degeneration of hippocampal CA-1 cells
